The target in one assay is T1, PDE5A1 (Homo sapiens, UniProt O76074).
T1 construct: from tissue; host or cells: human platelets from fresh donor blood (10,000 x g supernatant of sonicated lysate)
The experiment in a line: Inhibition of type 5 phosphodiesterase (PDE5) activity, modified SPA test with human platelet lysate. To be noted: 0.5 μM cGMP, read-out: PDE5A1 inhibitory values [measured as −log IC50 (mol/l)] (converted). The format is biochemical. The gist of the method: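 Enzyme source is lysate from human platelets (10,000 g supernatant). Compound preincubated 5 min at 37° C in Tris pH 7.4 containing 1 μM motapizone and 10 nM of a PDE2 inhibitor. Reaction started with 0.5 μM cGMP ([3H] tracer) and run 15 min; SPA read-out, IC50 by non-linear regression.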

The target in a further assay is T2, PDE4B1 (Homo sapiens, UniProt Q07343).
T2 construct: made in house; host or cells: SF21 insect cells (baculovirus; pCRBac vector), 1000 x g supernatant of homogenate
T2 sequence (Q07343 whole entry): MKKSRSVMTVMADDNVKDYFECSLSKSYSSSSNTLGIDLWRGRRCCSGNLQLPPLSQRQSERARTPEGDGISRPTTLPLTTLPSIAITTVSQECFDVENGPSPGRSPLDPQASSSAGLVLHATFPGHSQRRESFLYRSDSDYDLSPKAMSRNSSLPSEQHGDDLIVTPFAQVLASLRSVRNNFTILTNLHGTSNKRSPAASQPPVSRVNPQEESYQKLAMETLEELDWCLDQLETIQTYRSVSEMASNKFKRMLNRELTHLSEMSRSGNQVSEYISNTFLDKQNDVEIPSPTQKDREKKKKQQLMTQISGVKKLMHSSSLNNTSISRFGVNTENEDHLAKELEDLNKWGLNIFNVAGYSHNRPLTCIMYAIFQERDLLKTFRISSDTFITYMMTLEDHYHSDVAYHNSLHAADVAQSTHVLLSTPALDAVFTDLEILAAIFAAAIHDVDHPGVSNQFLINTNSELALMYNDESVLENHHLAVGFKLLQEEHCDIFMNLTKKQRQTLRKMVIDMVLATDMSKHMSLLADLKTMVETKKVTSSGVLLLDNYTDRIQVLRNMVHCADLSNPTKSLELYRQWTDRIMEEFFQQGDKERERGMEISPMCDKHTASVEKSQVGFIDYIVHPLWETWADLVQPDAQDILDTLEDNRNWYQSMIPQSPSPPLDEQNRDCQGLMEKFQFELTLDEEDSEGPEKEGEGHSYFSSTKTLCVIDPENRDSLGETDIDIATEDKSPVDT
As to the kind of experiment: Inhibition of type 4 phosphodiesterase (PDE4) activity, modified SPA test with recombinant PDE4B1 expressed in SF21 insect cells. It is filed as biochemical. To be noted: recombinant PDE4B1, 0.5 μM cAMP, read-out: PDE4B1 inhibitory values [measured as −log IC50 (mol/l)] (converted). The protocol:
Method for Measuring Inhibition of the Type 4 Phosphodiesterase (PDE4) Activity:
The PDE4B1 (GB no. L20966) was a gift of Prof. M. Conti (Stanford University, USA). It was amplified from the original plasmid (pCMV5) via PCR with primers Rb18 (5′-[…]-3′) and Rb10 (5′-[…]-3′) and cloned into the pCRBac vector (Invitrogen, Groningen, NL).
The recombinant baculovirus was prepared by means of homologous recombination in SF9 insect cells. The expression plasmids were cotransfected with Baculo-Gold DNA (Pharmingen, Hamburg) using a standard protocol (Pharmingen, Hamburg). Wt virus-free recombinant virus supernatants were selected using plaque assay methods. After that, high-titre virus supernatants were prepared by amplifying 3 times. PDE4B1 was expressed in SF21 cells by infecting 2×10^6 cells/ml with an MOI (multiplicity of infection) between 1 and 10 in the serum-free medium Insect Express Sf9-S2 (PAA, Pasching, Austria). The cells were cultured at 28° C. for 48-72 hours, after which they were pelleted for 5-10 min at 1000×g and 4° C.
The SF21 insect cells were resuspended, at a concentration of approx. 10^7 cells/ml, in ice-cold (4° C.) homogenization buffer (20 mM Tris, pH 8.2, containing the following additions: 140 mM NaCl, 3.8 mM KCl, 1 mM EGTA, 1 mM MgCl2, 10 mM (3-mercaptoethanol, 2 mM benzamidine, 0.4 mM Pefablock, 10 μM leupeptin, 10 μM pepstatin A, 5 μM trypsin inhibitor) and disrupted by ultrasonication. The homogenate was then centrifuged for 10 min at 1000×g and the supernatant was stored at −80° C. until subsequent use (see below). The protein content was determined by the Bradford method (BioRad, Munich) using BSA as the standard.
PDE4B1 activity was inhibited by the compounds according to the present subject matter in a modified SPA (scintillation proximity assay) test, supplied by Amersham Biosciences (see procedural instructions “phosphodiesterase [3H]cAMP SPA enzyme assay, code TRKQ 7090”), carried out in 96-well microtitre plates (MTP's). The test volume is 100 μl and contains 20 mM Tris buffer (pH 7.4), 0.1 mg/ml of BSA, 5 mM Mg^2+, 0.5 μM cAMP (including about 50,000 cpm of [3H]cAMP), 1 μl of the respective substance dilution in DMSO and sufficient recombinant PDE (1000×g supernatant, see above) to ensure that 10-20% of the cAMP is converted under the said experimental conditions. […] After a preincubation of 5 min at 37° C., the reaction is started by adding the substrate (cAMP) and the assays are incubated for a further 15 min; after that, they are stopped by adding SPA beads (50 μl). In accordance with the manufacturer's instructions, the SPA beads had previously been resuspended in water, but were then diluted 1:3 (v/v) in water; the diluted solution also contains 3 mM IBMX to ensure a complete PDE activity stop. After the beads have been sedimented (>30 min), the MTP's are analyzed in commercially available luminescence detection devices. The corresponding IC50 values of the compounds for the inhibition of PDE4B1 activity are determined from the concentration-effect curves by means of non-linear regression.

With `CC(=O)N[C@H]1CC[C@@H](NC(=O)c2c(C)[nH]c3c(-c4cc(F)ccc4OCC4CC4)ncnc23)CC1` [Example E45, N-(cis-4-acetamidocyclohexyl)-4-[2-(cyclopropylmethoxy)-5-fluorophenyl]-6-methyl-5H-pyrrolo[3,2-d]pyrimidine-7-carboxamide], the values for the IC50 at PDE5A1 and on PDE4B1 were 1 to 10 nM and 100 to 1000 nM, respectively.
With `COc1ccc(OCC2CC2)c(-c2ncnc3c(C(=O)NC4CCN(C(C)=O)CC4)c(C)[nH]c23)c1` [Example E66, N-(1-acetylpiperidin-4-yl)-4-[2-(cyclopropylmethoxy)-5-methoxyphenyl]-6-methyl-5H-pyrrolo[3,2-d]pyrimidine-7-carboxamide], the IC50 at PDE5A1 was less than 1 nM; at PDE4B1 it was 100 to 1000 nM.
Consider `CCC(=O)N1CCC(NC(=O)c2c(C)[nH]c3c(-c4cc(OC)ccc4OCC4CC4)ncnc23)CC1` [Example E67, 4-[2-(Cyclopropylmethoxy)-5-methoxyphenyl]-6-methyl-N-(1-propionylpiperidin-4-yl)-5H-pyrrolo[3,2-d]pyrimidine-7-carboxamide], for which the IC50 was less than 1 nM on PDE5A1 and 100 to 1000 nM on PDE4B1.
With `COCC(=O)N1CCC(NC(=O)c2c(C)[nH]c3c(-c4cc(OC)ccc4OCC4CC4)ncnc23)CC1` [Example E68, 4-[2-(Cyclopropylmethoxy)-5-methoxyphenyl]-N-[1-(methoxyacetyl)piperidin-4-yl]-6-methyl-5H-pyrrolo[3,2-d]pyrimidine-7-carboxamide], the values for the IC50 on PDE5A1 and on PDE4B1 were less than 1 nM and 100 to 1000 nM, respectively.
As to `COc1ccc(OCC2CC2)c(-c2ncnc3c(C(=O)N[C@H]4CC[C@H](NC(C)=O)CC4)c(C)[nH]c23)c1` [Example E69, N-(trans-4-acetamidocyclohexyl)-4-[2-(cyclopropylmethoxy)-5-methoxyphenyl]-6-methyl-5H-pyrrolo[3,2-d]pyrimidine-7-carboxamide], the IC50 at PDE5A1 was less than 1 nM; at PDE4B1 it was 100 to 1000 nM.
On to `CCC(=O)N[C@H]1CC[C@H](NC(=O)c2c(C)[nH]c3c(-c4cc(OC)ccc4OCC4CC4)ncnc23)CC1` [Example E70, 4-[2-(Cyclopropylmethoxy)-5-methoxyphenyl]-6-methyl-N-[trans-4-(propionylamino)cyclohexyl]-5H-pyrrolo[3,2-d]pyrimidine-7-carboxamide], for which the results for the IC50 on PDE5A1 and on PDE4B1 were less than 1 nM and 100 to 1000 nM, respectively.
The matching figures for `COCC(=O)N[C@H]1CC[C@H](NC(=O)c2c(C)[nH]c3c(-c4cc(OC)ccc4OCC4CC4)ncnc23)CC1` [Example E71, 4-[2-(Cyclopropylmethoxy)-5-methoxyphenyl]-N-{trans-4-[(methoxyacetyl)amino]cyclohexyl}-6-methyl-5H-pyrrolo[3,2-d]pyrimidine-7-carboxamide]: less than 1 nM and 100 to 1000 nM.
The matching figures for `COc1ccc(OCC2CC2)c(-c2ncnc3c(C(=O)N[C@H]4CC[C@@H](NC(C)=O)CC4)c(C)[nH]c23)c1` [Example E72, N-(cis-4-acetamidocyclohexyl)-4-[2-(cyclopropylmethoxy)-5-methoxyphenyl]-6-methyl-5H-pyrrolo[3,2-d]pyrimidine-7-carboxamide]: less than 1 nM and 100 to 1000 nM.
For `CCC(=O)N[C@H]1CC[C@@H](NC(=O)c2c(C)[nH]c3c(-c4cc(OC)ccc4OCC4CC4)ncnc23)CC1` [Example E73, 4-[2-(Cyclopropylmethoxy)-5-methoxyphenyl]-6-methyl-N-[cis-4-(propionylamino)cyclohexyl]-5H-pyrrolo[3,2-d]pyrimidine-7-carboxamide], the IC50 at PDE5A1 was less than 1 nM; on PDE4B1, 100 to 1000 nM.
The matching figures for `COCC(=O)N[C@H]1CC[C@@H](NC(=O)c2c(C)[nH]c3c(-c4cc(OC)ccc4OCC4CC4)ncnc23)CC1` [Example E74, 4-[2-(Cyclopropylmethoxy)-5-methoxyphenyl]-N-{cis-4-[(methoxyacetyl)amino]cyclohexyl}-6-methyl-5H-pyrrolo[3,2-d]pyrimidine-7-carboxamide]: less than 1 nM and 100 to 1000 nM.
Take `CC(=O)N1CCC(NC(=O)c2c(C)[nH]c3c(-c4cc(C)ccc4OCC4CC4)ncnc23)CC1` [Example E81, N-(1-Acetylpiperidin-4-yl)-4-[2-(cyclopropylmethoxy)-5-methylphenyl]-6-methyl-5H-pyrrolo[3,2-d]pyrimidine-7-carboxamide]: the IC50 on PDE5A1 is less than 1 nM; on PDE4B1, less than 100 nM.
For the compound `CCC(=O)N1CCC(NC(=O)c2c(C)[nH]c3c(-c4cc(C)ccc4OCC4CC4)ncnc23)CC1` [Example E82, 4-[2-(Cyclopropylmethoxy)-5-methylphenyl]-6-methyl-N-(1-propanoylpiperidin-4-yl)-5H-pyrrolo[3,2-d]pyrimidine-7-carboxamide], the IC50 on PDE5A1 is less than 1 nM; at PDE4B1, less than 100 nM.
For the compound `COCC(=O)N1CCC(NC(=O)c2c(C)[nH]c3c(-c4cc(C)ccc4OCC4CC4)ncnc23)CC1` [Example E83, 4-[2-(cyclopropylmethoxy)-5-methylphenyl]-N-[1-(methoxyacetyl)piperidin-4-yl]-6-methyl-5H-pyrrolo[3,2-d]pyrimidine-7-carboxamide], the IC50 on PDE5A1 was less than 1 nM; at PDE4B1, less than 100 nM.
The matching figures for `CC(=O)N[C@H]1CC[C@H](NC(=O)c2c(C)[nH]c3c(-c4cc(C)ccc4OCC4CC4)ncnc23)CC1` [Example E84, N-[trans-4-(acetylamino)cyclohexyl]-4-[2-(cyclopropylmethoxy)-5-methylphenyl]-6-methyl-5H-pyrrolo[3,2-d]pyrimidine-7-carboxamide]: less than 1 nM and less than 100 nM.
As to `CCC(=O)N[C@H]1CC[C@H](NC(=O)c2c(C)[nH]c3c(-c4cc(C)ccc4OCC4CC4)ncnc23)CC1` [Example E85, 4-[2-(Cyclopropylmethoxy)-5-methylphenyl]-6-methyl-N-[trans-4-(propanoylamino)cyclohexyl]-5H-pyrrolo[3,2-d]pyrimidine-7-carboxamide], the IC50 at PDE5A1 is less than 1 nM; on PDE4B1, less than 100 nM.
The matching figures for `COCC(=O)N[C@H]1CC[C@H](NC(=O)c2c(C)[nH]c3c(-c4cc(C)ccc4OCC4CC4)ncnc23)CC1` [Example E86, 4-[2-(Cyclopropylmethoxy)-5-methylphenyl]-N-{trans-4-[(methoxyacetyl)amino]cyclohexyl}-6-methyl-5H-pyrrolo[3,2-d]pyrimidine-7-carboxamide]: less than 1 nM and less than 100 nM.
The matching figures for `CC(=O)N[C@H]1CC[C@@H](NC(=O)c2c(C)[nH]c3c(-c4cc(C)ccc4OCC4CC4)ncnc23)CC1` [Example E87, N-[cis-4-(acetylamino)cyclohexyl]-4-[2-(cyclopropylmethoxy)-5-methylphenyl]-6-methyl-5H-pyrrolo[3,2-d]pyrimidine-7-carboxamide]: less than 1 nM and less than 100 nM.
The matching figures for `CCC(=O)N[C@H]1CC[C@@H](NC(=O)c2c(C)[nH]c3c(-c4cc(C)ccc4OCC4CC4)ncnc23)CC1` [Example E88, 4-[2-(Cyclopropylmethoxy)-5-methylphenyl]-6-methyl-N-[cis-4-(propanoylamino)cyclohexyl]-5H-pyrrolo[3,2-d]pyrimidine-7-carboxamide]: less than 1 nM and less than 100 nM.
